In patent publication US20250134861A1, “COMPOSITIONS COMPRISING 5-METHOXY-N,N-DIMETHYLTRYPTAMINE (5-MEO-DMT) FOR USE IN TREATING MENTAL DISORDERS” (GH RESEARCH IRELAND LIMITED, priority 2019, published 2025):

Key:
[1] = system: healthy volunteers; test: Clinical trial of inhaled 5-MeO-DMT in healthy volunteers: safety and tolerability; assay type: in vivo, human
Procedure: (§1) The trial consisted of two parts: Part A, where single doses of 5-MeO-DMT dosage amounts of 2 mg, 6 mg, 12 mg and 18 mg were administered; and Part B, where an initial 5-MeO-DMT dosage amount of 6 mg was administered, and then, unless the participant had already experienced a peak psychedelic experience based on the PPEQ or the supervising physician had decided that further dose increases were inappropriate based on observed side effects, further subsequent dosage amounts of 12 mg and 18 mg were administered with about 3 hours in between each administration. […] Pharmacokinetic analysis of 5-MeO-DMT and bufotenine plasma levels was performed at 1 hour and 3 hours after drug administration in Part A, and at 3 hours after drug administration in Part B.
18 participants were recruited into Part A of the study and 4 participants were recruited into Part B. 9 Participants were female and 13 participants were male. Median age was 29 years (range: 19 to 42 years). In Part A, 4 participants received 2 mg, 6 participants received 6 mg, 4 participants received 12 mg and 4 participants received 18 mg of 5-MeO-DMT. In Part B, 1 participant received 6 mg, 2 participants received 6 mg and then 12 mg and one participant received 6 mg, 12 mg and then 18 mg of 5-MeO-DMT.

[2] = system: healthy volunteers; test: Clinical trial of inhaled 5-MeO-DMT in healthy volunteers: intensity of the psychedelic effects (PPEQ); assay type: in vivo, human
Procedure: as §1
18 participants were recruited into Part A of the study and 4 participants were recruited into Part B. 9 Participants were female and 13 participants were male. Median age was 29 years (range: 19 to 42 years). […]
The Peak Psychedelic Experience Questionnaire (PPEQ) has been developed by the inventor as an improved alternative to the oceanic boundlessness dimension of the ASC and the MEQ30 to allow a simpler and quicker assessment of the intensity of a psychedelic experience. The PPEQ is comprised of three questions, all to be scored from 0 to 100 by marking a Visual Analogue Scale between 0 and 100 mm: • 1. […]

[3] = Part A, 2 mg single inhaled dose (n = 4), Administration day, possibly or probably related, mild
[4] = Part A, 6 mg single inhaled dose (n = 6), Administration day, possibly or probably related, mild
[5] = Part A, 6 mg single inhaled dose (n = 6), Day 1, possibly or probably related, mild
[6] = Part A, 18 mg single inhaled dose (n = 4), Administration day, possibly or probably related, mild
[7] = Part A, 18 mg single inhaled dose (n = 4), Day 1, possibly or probably related, mild
[8] = Part B, 12 mg (n = 3), after 6 mg, Administration day, possibly or probably related, mild

## COc1ccc2[nH]cc(CCN(C)C)c2c1 [5-MeO-DMT, 5-methoxy-N,N-dimethyltryptamine]
[1]; Part A and Part B
  Evaluation of ECG, safety laboratory analyses, CADSS and cognitive tests (PVT, DSST, PMT): unremarkable
  Severity and course of reported adverse events: all mild (except for one moderate event) and all resolved spontaneously
[1]; Part A and Part B, 2 to 18 mg inhaled
  Inhalation-related adverse events: No inhalation-related adverse events
[1]; [3]
  Adverse events reported: Nausea: 2
  Adverse events reported: Tachycardia: 1
  Adverse events reported: Vision blurred: 1
[1]; [4]
  Adverse events reported: Anxiety: 1
  Adverse events reported: Headache: 1
  Adverse events reported: Nausea: 1
[1]; [5]
  Adverse events reported: Clumsiness: 1
  Adverse events reported: Feeling hot: 1
  Adverse events reported: Headache: 1
[1]; Part A, 12 mg single inhaled dose (n = 4), Administration day, possibly or probably related, mild
  Adverse events reported: Anxiety: 1
[1]; Part A, 12 mg single inhaled dose (n = 4), Administration day, possibly or probably related, this event was moderate
  Adverse events reported: Heart rate increased: 1^1
[1]; [6]
  Adverse events reported: Headache: 1
  Adverse events reported: Nausea: 1
[1]; [7]
  Adverse events reported: Abnormal dreams: 1
  Adverse events reported: Fatigue: 1
  Adverse events reported: Hallucination: 1
  Adverse events reported: Hyperacusis: 1
  Adverse events reported: Insomnia: 1
  Adverse events reported: Mental fatigue: 1
[1]; Part A, 18 mg single inhaled dose (n = 4), Day 7, possibly or probably related, mild
  Adverse events reported: Flashback: 1
[1]; Part B, 6 mg inhaled (n = 4), Administration day, possibly or probably related, mild
  Adverse events reported: Nausea: 1
[1]; [8]
  Adverse events reported: Fatigue: 1
  Adverse events reported: Head discomfort: 1
  Adverse events reported: Headache: 1
  Adverse events reported: Nausea: 1
[1]; Part B, 18 mg (n = 1), after 12 mg and 6 mg, Administration day, Day 1 and Day 7
  Adverse events reported: None reported
[1]; shortly after administration, no other noteworthy changes
  Changes in vital parameters: temporary, not clinically relevant increase in heart rate and blood pressure
[2]; Part B, 6 mg, then 12 mg and 18 mg about 3 hours apart
  Intensity of the psychedelic experience with dose escalation: increased with the increasing dosage amounts in all participants
[2]; all participants, 2 to 18 mg inhaled
  Onset of the first psychedelic symptoms after the inhalation: within a few seconds
